In ChEMBL document CHEMBL5120759, “Synthesis, Biological Evaluation, and Molecular Docking Study of 3-Amino and 3-Hydroxy-seco A Derivatives of α-Amyrin and 3-Epilupeol as Inhibitors of COX-2 Activity and NF-kB Activation” (J Nat Prod, 2022):
Activity calls are given as the source filed them. The rule behind the calls is not given here.

Legend:
RAW264.7 [1] = assay: Antiinflammatory activity against LPS-stimulated mouse RAW264.7 cells assessed as inhibition of IL-6 production at 17.5 to 70 uM prestimulated with LPS and 2 hrs later incubated with compound by […] assay; assay type: functional, cell-based; settings: dose 17.5-70 µM
RAW264.7 [2] = assay: Antiinflammatory activity against LPS-stimulated mouse RAW264.7 cells assessed as inhibition of TNF-alpha production at 70 uM incubated for 2 hrs followed by LPS stimulation for 20 hrs by ELISA relative to control; assay type: functional; settings: time 22 hrs
RAW264.7 [3] = assay: Cytotoxicity against mouse RAW264.7 cells assessed as reduction in cell viability at 8.8 to 70 uM incubated for 24 hrs by MTS assay; assay type: toxicity, cell-based; settings: raw264.7, 24 h, dose 8.8-70 µM
RAW264.7 [4] = assay: Antiinflammatory activity against LPS-stimulated mouse RAW264.7 cells assessed as inhibition of IL-6 production at 70 uM incubated for 2 hrs followed by LPS stimulation for 20 hrs by ELISA relative to control; assay type: functional; settings: time 22 hrs
RAW264.7 [5] = assay: Antiinflammatory activity against LPS-stimulated mouse RAW264.7 cells assessed as inhibition of TNF-alpha production at 17.5 to 70 uM prestimulated with LPS and 2 hrs later incubated with compound by […] assay; assay type: functional, cell-based; settings: dose 17.5-70 µM
RAW-Blue [6] = assay: Inhibition of NF-kappaB activation in LPS-stimulated mouse RAW-Blue cells at 70 uM preincubated for 2 hrs followed by LPS stimulation and measured after 20 hrs by QUANTI-Blue assay; assay type: cell-based; settings: time 22.0 hrs
Mus musculus = assay: Anti-inflammatory activity against TPA-induced auricular edema CD-1 mouse model assessed as inhibition of ear edema at 1 mg per ear applied immediately after TPA application and measured after 4 hrs relative to control; assay type: functional
RAW264.7 [7] = assay: Antiinflammatory activity against LPS-stimulated mouse RAW264.7 cells assessed as inhibition of NO production at 8.8 to 70 uM prestimulated with LPS and 2 hrs later incubated with compound by Griess reagent based assay; assay type: functional, cell-based; settings: dose 8.8-70 µM
RAW264.7 [8] = assay: Antiinflammatory activity against LPS-stimulated mouse RAW264.7 cells assessed as inhibition of NO production incubated for 2 hrs followed by LPS stimulation for 20 hrs by Griess reagent based assay; assay type: functional, cell-based
[9] = target: T1, COX-1 (Prostaglandin G/H synthase 1) (Ovis aries, UniProt P05979); assay: Inhibition of ovine COX-1 at 17.5 uM using arachidonic acid as substrate by colorimetric analysis; assay type: single protein; settings: sheep, ovine COX-1 enzyme, probe arachidonic acid
T1 sequence (P05979 whole entry): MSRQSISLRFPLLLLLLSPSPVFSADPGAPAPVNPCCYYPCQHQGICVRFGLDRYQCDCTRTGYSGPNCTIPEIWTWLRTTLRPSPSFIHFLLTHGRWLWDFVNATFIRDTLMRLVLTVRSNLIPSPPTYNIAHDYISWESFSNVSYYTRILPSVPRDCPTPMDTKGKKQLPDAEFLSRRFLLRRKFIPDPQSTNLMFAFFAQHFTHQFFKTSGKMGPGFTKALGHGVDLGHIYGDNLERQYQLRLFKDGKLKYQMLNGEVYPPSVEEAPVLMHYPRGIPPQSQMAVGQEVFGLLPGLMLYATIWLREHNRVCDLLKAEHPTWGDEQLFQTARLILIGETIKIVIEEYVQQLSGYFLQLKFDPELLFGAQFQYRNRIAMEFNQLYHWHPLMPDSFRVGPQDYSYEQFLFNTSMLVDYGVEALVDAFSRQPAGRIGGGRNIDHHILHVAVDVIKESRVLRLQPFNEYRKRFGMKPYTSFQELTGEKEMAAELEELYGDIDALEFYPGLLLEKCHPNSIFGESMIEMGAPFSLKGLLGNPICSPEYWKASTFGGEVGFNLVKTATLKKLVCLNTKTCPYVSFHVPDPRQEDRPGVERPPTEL

[10] = target: T2, Prostaglandin G/H synthase 2 (Homo sapiens) (UniProt P35354); assay: Inhibition of human COX-2 at 17.5 uM using arachidonic acid as substrate by colorimetric analysis
T2 sequence (whole entry): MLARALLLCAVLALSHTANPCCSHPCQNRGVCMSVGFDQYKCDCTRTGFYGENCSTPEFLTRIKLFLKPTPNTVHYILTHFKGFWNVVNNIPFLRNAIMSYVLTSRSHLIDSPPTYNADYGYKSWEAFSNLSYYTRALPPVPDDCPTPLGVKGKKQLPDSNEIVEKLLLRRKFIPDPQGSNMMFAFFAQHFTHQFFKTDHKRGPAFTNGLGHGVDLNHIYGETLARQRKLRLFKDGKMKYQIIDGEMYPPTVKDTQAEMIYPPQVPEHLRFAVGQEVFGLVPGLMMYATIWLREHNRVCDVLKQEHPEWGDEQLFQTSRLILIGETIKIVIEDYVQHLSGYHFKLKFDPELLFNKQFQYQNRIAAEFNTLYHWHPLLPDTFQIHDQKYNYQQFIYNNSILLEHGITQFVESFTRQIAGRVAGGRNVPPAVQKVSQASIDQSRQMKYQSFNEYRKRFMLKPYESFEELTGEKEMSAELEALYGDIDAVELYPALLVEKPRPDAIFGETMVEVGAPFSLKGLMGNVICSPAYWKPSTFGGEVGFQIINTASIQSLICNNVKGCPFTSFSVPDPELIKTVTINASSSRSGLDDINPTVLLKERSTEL

[11] = Cytotoxicity against mouse RAW264.7 cells assessed as cell viability at 70 uM incubated for 24 hrs by MTS assay relative to control; assay type: toxicity, cell-based; settings: read-out: Activity
RAW-Blue [12] = assay: Inhibition of NF-kappaB activation in LPS-stimulated mouse RAW-Blue cells at 17.5 uM preincubated for 2 hrs followed by LPS stimulation and measured after 20 hrs by QUANTI-Blue assay; assay type: cell-based; settings: time 22.0 hrs
[13] = Cytotoxicity against mouse RAW264.7 cells assessed as cell viability at 35 uM incubated for 24 hrs by MTS assay relative to control; assay type: toxicity, cell-based; settings: read-out: Activity
RAW264.7 [14] = assay: Antiinflammatory activity against LPS-stimulated mouse RAW264.7 cells assessed as inhibition of IL-6 production incubated for 2 hrs followed by LPS stimulation for 20 hrs by ELISA; assay type: functional, cell-based
RAW264.7 [15] = assay: Antiinflammatory activity against LPS-stimulated mouse RAW264.7 cells assessed as inhibition of IL-6 production at 8.8 to 35 uM prestimulated with LPS and 2 hrs later incubated with compound by […] assay; assay type: functional, cell-based; settings: dose 8.8-35 µM
RAW264.7 [16] = assay: Antiinflammatory activity against LPS-stimulated mouse RAW264.7 cells assessed as inhibition of NO production at 4.4 to 35 uM prestimulated with LPS and 2 hrs later incubated with compound by Griess reagent based assay; assay type: functional, cell-based; settings: dose 4.4-35 µM
RAW264.7 [17] = assay: Antiinflammatory activity against LPS-stimulated mouse RAW264.7 cells assessed as inhibition of TNF-alpha production at 35 uM incubated for 2 hrs followed by LPS stimulation for 20 hrs by ELISA relative to control; assay type: functional; settings: time 22 hrs
RAW-Blue [18] = assay: Inhibition of NF-kappaB activation in LPS-stimulated mouse RAW-Blue cells at 35 uM preincubated for 2 hrs followed by LPS stimulation and measured after 20 hrs by QUANTI-Blue assay; assay type: cell-based; settings: time 22.0 hrs
RAW264.7 [19] = assay: Antiinflammatory activity against LPS-stimulated mouse RAW264.7 cells assessed as inhibition of TNF-alpha production at 8.8 to 35 uM prestimulated with LPS and 2 hrs later incubated with compound by […] assay; assay type: functional, cell-based; settings: dose 8.8-35 µM
RAW264.7 [20] = assay: Antiinflammatory activity against LPS-stimulated mouse RAW264.7 cells assessed as inhibition of TNF-alpha production at 84 uM incubated for 2 hrs followed by LPS stimulation for 20 hrs by ELISA relative to control; assay type: functional; settings: time 22 hrs
RAW264.7 [21] = assay: Antiinflammatory activity against LPS-stimulated mouse RAW264.7 cells assessed as inhibition of IL-6 production at 84 uM incubated for 2 hrs followed by LPS stimulation for 20 hrs by ELISA relative to control; assay type: functional; settings: time 22 hrs

C=C(C)[C@@H]1CC[C@]2(C)[C@H](CC=C3[C@@H]4[C@@H](C)[C@H](C)CC[C@]4(C)CC[C@]32C)[C@@]1(C)CCCN1C[C@H](O)C[C@H]1C(=O)OC
Activity (RAW264.7 [1]): Active | inhibition at 70 µM (RAW264.7 [2]): 70% | Activity (RAW264.7 [3]): Non-Toxic | inhibition at 70 µM (RAW264.7 [4]): 89.1% | Activity (RAW264.7 [5]): Active | inhibition (RAW-Blue [6]): 96.2% | inhibition (INH) (Mus musculus): 25.2% | Activity (RAW264.7 [7]): Active | IC50 (RAW264.7 [8]): 42.9 µM | inhibition at 17.5 µM [9]: 37.3% | inhibition [10]: 61.8%

C[C@H]1[C@H](C)CC[C@]2(C(=O)O)CC[C@]3(C)C(=CC[C@@H]4[C@@]5(C)CC[C@H](O)C(C)(C)[C@@H]5CC[C@]43C)[C@H]12 [URSOLIC ACID]
viability at 24 h, 70 µM [11]: 13.9% | inhibition (RAW-Blue [12]): 52.2% | inhibition (INH) (Mus musculus): 34.2% | IC50 (RAW264.7 [8]): 13.8 µM | viability at 24 h, 35 µM [13]: 30% | inhibition at 17.5 µM [9]: 23.6%

C=C(C)[C@@H]1CC[C@]2(C)[C@H](CC=C3[C@@H]4[C@@H](C)[C@H](C)CC[C@]4(C)CC[C@]32C)[C@@]1(C)CCCNCC(=O)OC
Activity (RAW264.7 [3]): Non-Toxic | inhibition (INH) (Mus musculus): 40.1% | inhibition at 17.5 µM [9]: 33.3% | inhibition [10]: 61.8%

C=C(C)[C@@H]1CC[C@]2(C)CC[C@]3(C)[C@H](CC[C@@H]4[C@@]5(C)CC[C@@H](O)C(C)(C)[C@@H]5CC[C@]43C)[C@H]12
inhibition (INH) (Mus musculus): 66.4%

C=C(C)[C@@H]1CC[C@]2(C)CC[C@]3(C)[C@H](CC[C@@H]4[C@@](C)(CCCO)[C@H](C(=C)C)CC[C@]43C)[C@@H]12
Activity (RAW264.7 [1]): Active | inhibition at 70 µM (RAW264.7 [2]): 49.8% | Activity (RAW264.7 [3]): Non-Toxic | Activity (RAW264.7 [5]): Active | IC50 (RAW264.7 [14]): 38 µM | inhibition (RAW-Blue [6]): 63.4% | inhibition (INH) (Mus musculus): 17.3% | Activity (RAW264.7 [7]): Active | IC50 (RAW264.7 [8]): 54.4 µM | inhibition at 17.5 µM [9]: 14.8% | inhibition [10]: 26%

C=C(C)[C@@H]1CC[C@]2(C)CC[C@]3(C)[C@H](CC[C@@H]4[C@@](C)(CCCN5CCOCC5)[C@H](C(=C)C)CC[C@]43C)[C@@H]12
Activity (RAW264.7 [3]): Non-Toxic | inhibition (INH) (Mus musculus): 11.1% | inhibition [10]: 49.2%

C=C(C)[C@@H]1CC[C@]2(C)[C@H](CC=C3[C@@H]4[C@@H](C)[C@H](C)CC[C@]4(C)CC[C@]32C)[C@@]1(C)CCCO
Activity (RAW264.7 [1]): Active | inhibition at 70 µM (RAW264.7 [2]): 68.5% | Activity (RAW264.7 [3]): Non-Toxic | inhibition at 70 µM (RAW264.7 [4]): 40.2% | Activity (RAW264.7 [5]): Active | inhibition (RAW-Blue [6]): 22% | inhibition (INH) (Mus musculus): 9.5% | Activity (RAW264.7 [7]): Active | IC50 (RAW264.7 [8]): 58.9 µM | inhibition [10]: 66.3%

C=C(C)[C@@H]1CC[C@]2(C)CC[C@]3(C)[C@H](CC[C@@H]4[C@@](C)(CCCN5C[C@H](O)C[C@H]5C(=O)OC)[C@H](C(=C)C)CC[C@]43C)[C@@H]12
viability at 24 h, 70 µM [11]: 64.2% | Activity (RAW264.7 [15]): Active | Activity (RAW264.7 [16]): Active | IC50 (RAW264.7 [14]): 11.1 µM | inhibition (INH) (Mus musculus): 36.4% | Activity (RAW264.7 [7]): Active | inhibition at 35 µM (RAW264.7 [17]): 55.7% | inhibition (RAW-Blue [18]): 87.4% | IC50 (RAW264.7 [8]): 23.2 µM | inhibition at 17.5 µM [9]: 7.2% | Activity (RAW264.7 [19]): Active

C=C(C)[C@@H]1CC[C@]2(C)[C@H](CC=C3[C@@H]4[C@@H](C)[C@H](C)CC[C@]4(C)CC[C@]32C)[C@@]1(C)CCCN1CCOCC1
viability at 24 h, 70 µM [11]: 73.8% | inhibition (INH) (Mus musculus): 12.2% | inhibition at 17.5 µM [9]: 12.2% | inhibition [10]: 74.4%

COc1ccc2c(c1)c(CC(=O)O)c(C)n2C(=O)c1ccc(Cl)cc1 [INDOMETHACIN]
inhibition at 84 µM (RAW264.7 [20]): 54.6% | inhibition at 84 µM (RAW264.7 [21]): 44.2% | inhibition (INH) (Mus musculus): 91.4% | IC50 (RAW264.7 [8]): 40.7 µM
